# Source: patent US12509444B2, “Compounds and methods for CD73 modulation and indications therefor” (Plexxikon Inc., priority 2019, dated 2025)
# Target: T1, Human CD73 (amino acid residues 27-549) (Homo sapiens, UniProt P21589)
# T1 construct: Human CD73 (amino acid residues 27-549); His tag (N); made in house; host or cells: E. coli
# T1 sequence (P21589 27-549): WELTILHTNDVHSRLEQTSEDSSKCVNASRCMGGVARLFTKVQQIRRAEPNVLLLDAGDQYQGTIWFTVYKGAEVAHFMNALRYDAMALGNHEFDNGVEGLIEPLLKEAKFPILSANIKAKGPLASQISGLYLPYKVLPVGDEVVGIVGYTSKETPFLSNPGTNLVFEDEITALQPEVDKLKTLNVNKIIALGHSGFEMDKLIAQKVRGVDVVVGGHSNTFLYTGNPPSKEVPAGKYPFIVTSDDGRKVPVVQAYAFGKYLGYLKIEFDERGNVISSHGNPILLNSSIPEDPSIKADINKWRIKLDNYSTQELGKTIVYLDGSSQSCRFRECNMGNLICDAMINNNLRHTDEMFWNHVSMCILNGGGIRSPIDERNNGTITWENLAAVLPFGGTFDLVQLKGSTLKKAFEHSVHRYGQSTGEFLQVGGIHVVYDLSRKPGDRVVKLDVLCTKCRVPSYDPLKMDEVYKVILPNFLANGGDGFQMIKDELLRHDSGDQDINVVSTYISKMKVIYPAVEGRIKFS
# Test: CD73 enzymatic assay (luciferase-based indirect assay, CellTiter-Glo)
# Type: biochemical
# Conditions: 0.4 nM CD73, 150 μM AMP, 1 hour at room temperature
# Experimental: CD73 enzymatic activity was measured in a luciferase-based indirect assay using CellTiter-Glo® system from Promega. The luciferase reaction in the presence of ATP is inhibited by AMP, a primary substrate of CD73. Addition of CD73 enzyme to the reaction converts AMP to adenosine, and release the inhibition, producing a luminescent signal. Inhibition of CD73 leads to the decrease of this luminescent signal.
# Human CD73 (amino acid residues 27-549) with N-Terminal His tag was purified in E. coli. All the assay components were prepared in 50 mM HEPEs buffer (pH 7.4) with 0.01% Tween® 20. The CD73 enzymatic assay was performed using 0.4 nM CD73 and 150 μM AMP. 9.5 μL of CD73 protein and 9.5 μL of AMP were added to the wells of a 384 well plate containing 1 μL of various concentrations of test compound or DMSO vehicle and incubated for 1 hour at room temperature. 16 wells containing CD73, AMP and 5% DMSO served as high control. 16 wells containing AMP and 5% DMSO served as low control. Enzymatic reaction was stopped and AMP level was measured indirectly by adding 5 μL of CellTiter-Glo® 2.0 reagent and 5 μL of ATP with a final concentration of 1 μM. Following incubation of the plate at room temperature for 30 minutes, luminescent signal was read on a Tecan plate reader. The percentage inhibition at individual concentrations relative to high and low controls was calculated. The data were analyzed by using nonlinear regression to generate IC50 values.
row,Compound,IC50 [µM]
1,"O=C(Nc1cccc(OC(F)F)c1)N[C@@H]1CCN(c2cn[nH]c(=O)c2Cl)C1 [P-0044, (R)-1-(1-(5-chloro-6-oxo-1,6-dihydropyridazin-4-yl)pyrrolidin-3-yl)-3-(3-(difluoromethoxy)phenyl)urea]",0.001 to 10
2,"O=C(N[C@@H]1CCN(c2cn[nH]c(=O)c2Cl)C1)OCc1ccccc1 [P-0048, benzyl (R)-(1-(5-chloro-6-oxo-1,6-dihydropyridazin-4-yl)pyrrolidin-3-yl)carbamate]",10 to 100
3,"COc1ccc(OC(=O)N[C@@H]2CCN(c3cn[nH]c(=O)c3Cl)C2)cc1 [P-0049, 4-methoxyphenyl (R)-(1-(5-chloro-6-oxo-1,6-dihydropyridazin-4-yl)pyrrolidin-3-yl)carbamate]",0.001 to 10
4,"CC(C)COC(=O)N[C@@H]1CCN(c2cn[nH]c(=O)c2Cl)C1 [P-0050, isobutyl (R)-(1-(5-chloro-6-oxo-1,6-dihydropyridazin-4-yl)pyrrolidin-3-yl)carbamate]",0.001 to 10
5,"O=C(NC1CC1)N[C@@H]1CCN(c2cn[nH]c(=O)c2Cl)C1 [P-0053, (R)-1-(1-(5-chloro-6-oxo-1,6-dihydropyridazin-4-yl)pyrrolidin-3-yl)-3-cyclopropylurea]",0.001 to 10
6,"O=C(N[C@@H]1CCN(c2cn[nH]c(=O)c2Cl)C1)OC1CCOC1 (stereo partly drawn) [P-0055, tetrahydrofuran-3-yl ((R)-1-(5-chloro-6-oxo-1,6-dihydropyridazin-4-yl)pyrrolidin-3-yl)carbamate]",0.001 to 10
7,"C[C@H]1CN(c2cn[nH]c(=O)c2Cl)C[C@@H]1NC(=O)OC(C)(C)C [P-0060, tert-butyl ((3R,4S)-1-(5-chloro-6-oxo-1,6-dihydropyridazin-4-yl)-4-methylpyrrolidin-3-yl)carbamate]",0.001 to 10
8,"C[C@H]1CN(c2cn[nH]c(=O)c2Cl)C[C@@H]1NC(=O)NC1CCCC1 [P-0061, 1-((3R,4S)-1-(5-chloro-6-oxo-1,6-dihydropyridazin-4-yl)-4-methylpyrrolidin-3-yl)-3-cyclopentylurea]",0.001 to 10
9,"CN(C(=O)NC1CCCC1)C1CCN(c2cn[nH]c(=O)c2Cl)C1 (stereo not drawn) [P-0067, 1-(1-(5-chloro-6-oxo-1,6-dihydropyridazin-4-yl)pyrrolidin-3-yl)-3-cyclopentyl-1-methylurea]",10 to 100
10,"CN(C(=O)NC1CCCCC1)C1CCN(c2cn[nH]c(=O)c2Cl)C1 (stereo not drawn) [P-0069, 1-(1-(5-chloro-6-oxo-1,6-dihydropyridazin-4-yl)pyrrolidin-3-yl)-3-cyclohexyl-1-methylurea]",0.001 to 10
11,"CC(C)(C)OC(=O)NC1(C(=O)O)CCN(c2cn[nH]c(=O)c2Cl)C1 (stereo not drawn) [P-0070, 3-((tert-butoxycarbonyl)amino)-1-(5-chloro-6-oxo-1,6-dihydropyridazin-4-yl)pyrrolidine-3-carboxylic acid]",100 to 1000
12,"CC(=O)N1CCC(NC(=O)N[C@@H]2CCN(c3cn[nH]c(=O)c3Cl)C2)CC1 [P-0071, (R)-1-(1-acetylpiperidin-4-yl)-3-(1-(5-chloro-6-oxo-1,6-dihydropyridazin-4-yl)pyrrolidin-3-yl)urea]",0.001 to 10
13,"NC(=O)C1(NC(=O)OC2CCCCC2)CCN(c2cn[nH]c(=O)c2Cl)C1 (stereo not drawn) [P-0075, cyclohexyl (3-carbamoyl-1-(5-chloro-6-oxo-1,6-dihydropyridazin-4-yl)pyrrolidin-3-yl)carbamate]",10 to 100
14,"CN(C(=O)NC1CCN(c2cn[nH]c(=O)c2Cl)C1)C1CCCCC1 (stereo not drawn) [P-0078, 3-(1-(5-chloro-6-oxo-1,6-dihydropyridazin-4-yl)pyrrolidin-3-yl)-1-cyclohexyl-1-methylurea]",10 to 100
15,"CN(C(=O)NC1CCN(c2cn[nH]c(=O)c2Cl)C1)C1CCCC1 (stereo not drawn) [P-0079, 3-(1-(5-chloro-6-oxo-1,6-dihydropyridazin-4-yl)pyrrolidin-3-yl)-1-cyclopentyl-1-methylurea]",0.001 to 10
16,"Cc1n[nH]c(=O)c(Cl)c1N1CC[C@@H](NC(=O)NC2CCCCC2)C1 [P-0080, (R)-1-(1-(5-chloro-3-methyl-6-oxo-1,6-dihydropyridazin-4-yl)pyrrolidin-3-yl)-3-cyclohexylurea]",10 to 100
17,"O=C(NC1CC1c1ccccc1)N[C@@H]1CCN(c2cn[nH]c(=O)c2Cl)C1 (stereo partly drawn) [P-0084, 1-((R)-1-(5-chloro-6-oxo-1,6-dihydropyridazin-4-yl)pyrrolidin-3-yl)-3-(2-phenylcyclopropyl)urea]",0.001 to 10
18,"O=C(NC1C2CC3CC(C2)CC1C3)N[C@@H]1CCN(c2cn[nH]c(=O)c2Cl)C1 (stereo partly drawn) [P-0087, (R)-1-(adamantan-2-yl)-3-(1-(5-chloro-6-oxo-1,6-dihydropyridazin-4-yl)pyrrolidin-3-yl)urea]",0.001 to 10

# Continued, values first:
row,IC50 [µM],Compound
1,0.001 to 10,"O=C(Nc1ccc(C(F)(F)F)cc1)N[C@@H]1CCN(c2cn[nH]c(=O)c2Cl)C1 [P-0043, (R)-1-(1-(5-chloro-6-oxo-1,6-dihydropyridazin-4-yl)pyrrolidin-3-yl)-3-(4-(trifluoromethyl)phenyl)urea]"
2,10 to 100,"CN(C)c1ccc(NC(=O)N[C@@H]2CCN(c3cn[nH]c(=O)c3Cl)C2)cc1 [P-0045, (R)-1-(1-(5-chloro-6-oxo-1,6-dihydropyridazin-4-yl)pyrrolidin-3-yl)-3-(4-(dimethylamino)phenyl)urea]"
3,10 to 100,"CN(C(=O)OC(C)(C)C)C1CCN(c2cn[nH]c(=O)c2Cl)C1 (stereo not drawn) [P-0066, tert-butyl (1-(5-chloro-6-oxo-1,6-dihydropyridazin-4-yl)pyrrolidin-3-yl)(methyl)carbamate]"
4,0.001 to 10,"CCS(=O)(=O)N1CCC(NC(=O)N[C@@H]2CCN(c3cn[nH]c(=O)c3Cl)C2)CC1 [P-0072, (R)-1-(1-(5-chloro-6-oxo-1,6-dihydropyridazin-4-yl)pyrrolidin-3-yl)-3-(1-(ethylsulfonyl)piperidin-4-yl)urea]"
5,10 to 100,"N#CC1(NC(=O)NC2CCCC2)CCN(c2cn[nH]c(=O)c2Cl)C1 (stereo not drawn) [P-0073, 1-(1-(5-chloro-6-oxo-1,6-dihydropyridazin-4-yl)-3-cyanopyrrolidin-3-yl)-3-cyclopentylurea]"
6,0.001 to 10,"Cc1c(N2CC[C@@H](NC(=O)OC3CCCCC3)C2)cn[nH]c1=O [P-0081, cyclohexyl (R)-(1-(5-methyl-6-oxo-1,6-dihydropyridazin-4-yl)pyrrolidin-3-yl)carbamate]"
7,10 to 100,"Cc1n[nH]c(=O)c(Cl)c1N1CC[C@@H](NC(=O)OC2CCCC2)C1 [P-0082, cyclopentyl (R)-(1-(5-chloro-3-methyl-6-oxo-1,6-dihydropyridazin-4-yl)pyrrolidin-3-yl)carbamate]"
8,10 to 100,"O=C(NCC1CC1)N[C@@H]1CCN(c2cn[nH]c(=O)c2Cl)C1 [P-0083, (R)-1-(1-(5-chloro-6-oxo-1,6-dihydropyridazin-4-yl)pyrrolidin-3-yl)-3-(cyclopropylmethyl)urea]"
9,0.001 to 10,"COC(=O)C12CCC(NC(=O)O[C@@H]3CCN(c4cn[nH]c(=O)c4Cl)C3)(CC1)CC2 [P-0120, methyl (R)-4-((((1-(5-chloro-6-oxo-1,6-dihydropyridazin-4-yl)pyrrolidin-3-yl)oxy)carbonyl)amino)bicyclo [2.2.2]octane-1-carboxylate]"
